According to the supplement of paper PMC10307832:

Assays:
Assay in all cases: relative viability (nuclei count vs DMSO), 5 days (fraction); higher = more cells survive
AZD8055 + Crizotinib = compound: COc1ccc(-c2ccc3c(N4CCOC[C@@H]4C)nc(N4CCOC[C@@H]4C)nc3n2)cc1CO [AZD8055] + C[C@@H](Oc1cc(-c2cnn(C3CCNCC3)c2)cnc1N)c1c(Cl)ccc(F)c1Cl [Crizotinib] (partner 1 µM)
Outline: (§1)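 After 5 days of treatment, lung cancer cells in 1536-well plates were fixed and stained in a single step (final 0.05% Triton X-100, 1% formaldehyde, 1 ug/ml Hoechst) and their nuclei counted on 4× images. Treatment had been applied by pin tool the day after seeding as one drug alone or as a fixed anchor-drug dose with five library-drug doses (not always all listed) in √10 steps. Relative viability is the nuclei count of treated wells divided by that of vehicle wells, and values are medians of duplicate plates.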

AZD8055 + Palbociclib = compound: COc1ccc(-c2ccc3c(N4CCOC[C@@H]4C)nc(N4CCOC[C@@H]4C)nc3n2)cc1CO [AZD8055] + CC(=O)c1c(C)c2cnc(Nc3ccc(N4CCNCC4)cn3)nc2n(C2CCCC2)c1=O [Palbociclib] (partner 0.5 µM)
Outline: as §1

AZD8055 + AZD7762 = compound: COc1ccc(-c2ccc3c(N4CCOC[C@@H]4C)nc(N4CCOC[C@@H]4C)nc3n2)cc1CO [AZD8055] + NC(=O)Nc1cc(-c2cccc(F)c2)sc1C(=O)N[C@H]1CCCNC1 [AZD7762] (partner 0.2 µM)
Outline: as §1

AZD8055 + Vorinostat = compound: COc1ccc(-c2ccc3c(N4CCOC[C@@H]4C)nc(N4CCOC[C@@H]4C)nc3n2)cc1CO [AZD8055] + O=C(CCCCCCC(=O)Nc1ccccc1)NO [Vorinostat] (partner 1 µM)
Outline: as §1

Cell Line | relative viability (AZD8055 + Crizotinib; first compound 0.01 µM) | relative viability (AZD8055 + Crizotinib; first compound 0.03162 µM) | relative viability (AZD8055 + Crizotinib; first compound 0.1 µM) | relative viability (AZD8055 + Crizotinib; first compound 0.3162 µM) | relative viability (AZD8055 + Crizotinib; first compound 1 µM) | relative viability (AZD8055 + Palbociclib; first compound 0.01 µM) | relative viability (AZD8055 + Palbociclib; first compound 0.03162 µM) | relative viability (AZD8055 + Palbociclib; first compound 0.1 µM) | relative viability (AZD8055 + Palbociclib; first compound 0.3162 µM) | relative viability (AZD8055 + Palbociclib; first compound 1 µM) | relative viability (AZD8055 + AZD7762; first compound 0.01 µM) | relative viability (AZD8055 + AZD7762; first compound 0.03162 µM) | relative viability (AZD8055 + AZD7762; first compound 0.1 µM) | relative viability (AZD8055 + AZD7762; first compound 0.3162 µM) | relative viability (AZD8055 + AZD7762; first compound 1 µM) | relative viability (AZD8055 + Vorinostat; first compound 0.01 µM) | relative viability (AZD8055 + Vorinostat; first compound 0.03162 µM) | relative viability (AZD8055 + Vorinostat; first compound 0.1 µM) | relative viability (AZD8055 + Vorinostat; first compound 0.3162 µM) | relative viability (AZD8055 + Vorinostat; first compound 1 µM)
HCC-366 | 0.416 | 0.484 | 0.223 | 0.107 | 0.0921 | 0.311 | 0.199 | 0.0939 | 0.0508 | 0.0399 | 0.364 | 0.255 | 0.268 | 0.124 | 0.0821 | 0.372 | 0.205 | 0.182 | 0.0725 | 0.0602
IA-LM | 0.923 | 0.472 | 0.347 | 0.0713 | 0.105 |  |  |  |  |  |  |  |  |  |  | 0.814 | 0.758 | 0.524 | 0.172 | 0.127
NCI-H520 | 0.58 | 0.53 | 0.37 | 0.195 | 0.194 | 0.167 | 0.15 | 0.156 | 0.141 | 0.161 |  |  |  |  |  | 0.621 | 0.406 | 0.242 | 0.188 | 0.154
NCI-H522 |  |  |  |  |  | 1.06 | 0.923 | 0.717 | 0.536 | 0.414 | 0.847 | 0.799 | 0.647 | 0.532 | 0.569 | 0.898 | 0.731 | 0.876 | 0.666 | 0.499
NCI-H596 | 1 | 0.78 | 0.624 | 0.322 | 0.423 |  |  |  |  |  | 1.04 | 0.776 | 0.632 | 0.567 | 0.489 | 0.565 | 0.567 | 0.441 | 0.455 | 0.428
NCI-H661 | 1.06 | 1.1 | 1.07 | 0.634 | 0.567 | 0.37 | 0.368 | 0.303 | 0.291 | 0.362 |  |  |  |  |  | 0.866 | 0.791 | 0.707 | 0.465 | 0.4
NCI-H1299 | 0.998 | 0.995 | 0.968 | 0.891 | 0.51 |  |  |  |  |  |  |  |  |  |  |  |  |  |  | 
NCI-H1395 |  |  |  |  |  | 0.604 | 0.526 | 0.547 | 0.44 | 0.45 | 0.384 | 0.405 | 0.443 | 0.34 | 0.419 | 0.683 | 0.448 | 0.621 | 0.422 | 0.461
NCI-H1563 | 0.769 | 0.81 | 0.697 | 0.6 | 0.679 |  |  |  |  |  |  |  |  |  |  |  |  |  |  | 
NCI-H1648 |  |  |  |  |  | 0.251 | 0.332 | 0.201 | 0.235 | 0.241 | 0.708 | 0.804 | 0.639 | 0.413 | 0.261 | 0.501 | 0.451 | 0.293 | 0.287 | 0.273
NCI-H1650 | 0.919 | 1.24 | 1.02 | 0.518 | 0.43 | 0.317 | 0.323 | 0.254 | 0.18 | 0.205 |  |  |  |  |  | 0.729 | 0.436 | 0.521 | 0.265 | 0.236
NCI-H1703 | 0.635 | 0.489 | 0.508 | 0.4 | 0.222 |  |  |  |  |  | 0.127 | 0.125 | 0.115 | 0.115 | 0.095 |  |  |  |  | 
NCI-H1792 | 0.927 | 0.82 | 0.82 | 0.173 | 0.157 | 0.677 | 0.585 | 0.417 | 0.359 | 0.307 | 0.589 | 0.291 | 0.21 | 0.0685 | 0.0707 |  |  |  |  | 
NCI-H1793 |  |  |  |  |  | 0.216 | 0.218 | 0.163 | 0.22 | 0.211 | 0.379 | 0.264 | 0.197 | 0.145 | 0.127 | 0.567 | 0.387 | 0.271 | 0.188 | 0.224
NCI-H2009 | 1.01 | 1.05 | 0.832 | 0.831 | 0.273 | 0.227 | 0.156 | 0.203 | 0.178 | 0.149 |  |  |  |  |  | 0.816 | 0.798 | 0.732 | 0.458 | 0.395
NCI-H2023 | 0.521 | 0.507 | 0.339 | 0.119 | 0.119 | 0.264 | 0.229 | 0.0912 | 0.086 | 0.113 |  |  |  |  |  | 0.65 | 0.405 | 0.335 | 0.14 | 0.115
NCI-H2228 | 0.39 | 0.229 | 0.286 | 0.173 | 0.302 | 0.696 | 0.477 | 0.388 | 0.168 | 0.166 |  |  |  |  |  | 0.918 | 0.541 | 0.416 | 0.271 | 0.242
NCI-H2342 |  |  |  |  |  | 0.489 | 0.537 | 0.458 | 0.473 | 0.426 | 0.422 | 0.459 | 0.308 | 0.376 | 0.43 | 0.766 | 0.702 | 0.651 | 0.501 | 0.53
SK-LU-1 | 0.743 | 0.767 | 0.335 | 0.475 | 0.376 | 0.401 | 0.32 | 0.288 | 0.299 | 0.261 |  |  |  |  |  | 0.745 | 0.701 | 0.605 | 0.393 | 0.292
SK-MES-1 | 0.94 | 0.944 | 0.781 | 0.494 | 0.318 | 0.284 | 0.247 | 0.24 | 0.228 | 0.249 |  |  |  |  |  | 1.06 | 0.958 | 0.962 | 0.427 | 0.314
SW 1573 | 0.777 | 0.812 | 0.449 | 0.317 | 0.21 | 0.342 | 0.324 | 0.159 | 0.145 | 0.133 |  |  |  |  |  | 0.791 | 0.452 | 0.773 | 0.21 | 0.199
UMC-11 | 0.543 | 0.535 | 0.321 | 0.29 | 0.189 | 0.341 | 0.32 | 0.299 | 0.295 | 0.288 |  |  |  |  |  | 0.453 | 0.282 | 0.258 | 0.233 | 0.21
